According to patent US10738030B2, “Modulators of cystic fibrosis transmembrane conductance regulator” (Vertex Pharmaceuticals Incorporated, priority 2016, dated 2020):

Molecular target: T1, F508del (Homo sapiens, UniProt P13569, DEL508-508)
T1 construct: expressed in transfected cells
Experiment: Membrane potential optical assay (FRET voltage-sensor dyes), identification of correction compounds
Type: cell-based
Settings: NIH3T3 cells stably expressing F508del, procedures described above; for Emax: maximum efficacy, read-out: Max Efficacy; for EC50: modulation of CFTR activity
Method: (§1) NIH3T3 mouse fibroblasts stably expressing F508del are used for optical measurements of membrane potential. The cells are maintained at 37° C. in 5% CO2 and 90% humidity in Dulbecco's modified Eagle's medium supplemented with 2 mM glutamine, 10% fetal bovine serum, 1×NEAA, β-ME, 1× pen/strep, and 25 mM HEPES in 175 cm^2 culture flasks. For all optical assays, the cells were seeded at 12,000 cells/well in 384-well matrigel-coated plates and cultured for 18-24 hrs at 37° C. for the potentiator assay. For the correction assays, the cells are cultured at 37° C. with and without compounds for 18-24 hours.
Membrane potential optical methods for assaying F508del modulation properties of compounds.
The optical membrane potential assay utilized voltage-sensitive FRET sensors described by Gonzalez and Tsien (See Gonzalez, J. E. and R. Y. Tsien (1995) “Voltage sensing by fluorescence resonance energy transfer in single cells” Biophys J 69(4): 1272-80, and Gonzalez, J. E. and R. Y. Tsien (1997) “Improved indicators of cell membrane potential that use fluorescence resonance energy transfer” Chem Biol 4(4): 269-77) in combination with instrumentation for measuring fluorescence changes such as the Voltage/Ion Probe Reader (VIPR) (See, Gonzalez, J. E., K. Oades, et al. (1999) “Cell-based assays and instrumentation for screening ion-channel targets” Drug Discov Today 4(9): 431-439).
These voltage sensitive assays are based on the change in fluorescence resonant energy transfer (FRET) between the membrane-soluble, voltage-sensitive dye, DiSBAC2(3), and a fluorescent phospholipid, CC2-DMPE, which is attached to the outer leaflet of the plasma membrane and acts as a FRET donor. Changes in membrane potential (Vm) cause the negatively charged DiSBAC2(3) to redistribute across the plasma membrane and the amount of energy transfer from CC2-DMPE changes accordingly. The changes in fluorescence emission were monitored using VIPR™ II, which is an integrated liquid handler and fluorescent detector designed to conduct cell-based screens in 96- or 384-well microtiter plates.
To identify small molecules that correct the trafficking defect associated with F508del; a single-addition HTS assay format was developed. The cells were incubated in serum-free medium for 16 hrs at 37° C. in the presence or absence (negative control) of test compound. As a positive control, cells plated in 384-well plates were incubated for 16 hrs at 27° C. to “temperature-correct” F508del. The cells were subsequently rinsed 3× with Krebs Ringers solution and loaded with the voltage-sensitive dyes. To activate F508del, 10 μM forskolin and the CFTR potentiator, genistein (20 μM), were added along with Cl^−-free medium to each well. The addition of Cl^−-free medium promoted Cl^− efflux in response to F508del activation and the resulting membrane depolarization was optically monitored using the FRET-based voltage-sensor dyes.
• Bath Solution #1: (in mM) NaCl 160, KCl 4.5, CaCl2 2, MgCl2 1, HEPES 10, pH 7.4 with NaOH. • Chloride-free bath solution: Chloride salts in Bath Solution #1 (above) are substituted with gluconate salts. • CC2-DMPE: Prepared as a 10 mM stock solution in DMSO and stored at −20° C. • DiSBAC2(3): Prepared as a 10 mM stock in DMSO and stored at −20° C. Cell Culture
as §1, with “seeded at 30,000/well in 384-well” for “seeded at 12,000 cells/well in 384-well”, “cultured for 2 hrs at” for “cultured for 18-24 hrs at”, “37° C. before culturing at 27° C. for 24 hrs for the” for “37° C. for the”, “cultured at 27° C. or 37° C.” for “cultured at 37° C.”, “compounds for 16-24 hours.” for “compounds for 18-24 hours.”

T1 sequence (P13569 with tags, fused parts or gaps DEL508-508): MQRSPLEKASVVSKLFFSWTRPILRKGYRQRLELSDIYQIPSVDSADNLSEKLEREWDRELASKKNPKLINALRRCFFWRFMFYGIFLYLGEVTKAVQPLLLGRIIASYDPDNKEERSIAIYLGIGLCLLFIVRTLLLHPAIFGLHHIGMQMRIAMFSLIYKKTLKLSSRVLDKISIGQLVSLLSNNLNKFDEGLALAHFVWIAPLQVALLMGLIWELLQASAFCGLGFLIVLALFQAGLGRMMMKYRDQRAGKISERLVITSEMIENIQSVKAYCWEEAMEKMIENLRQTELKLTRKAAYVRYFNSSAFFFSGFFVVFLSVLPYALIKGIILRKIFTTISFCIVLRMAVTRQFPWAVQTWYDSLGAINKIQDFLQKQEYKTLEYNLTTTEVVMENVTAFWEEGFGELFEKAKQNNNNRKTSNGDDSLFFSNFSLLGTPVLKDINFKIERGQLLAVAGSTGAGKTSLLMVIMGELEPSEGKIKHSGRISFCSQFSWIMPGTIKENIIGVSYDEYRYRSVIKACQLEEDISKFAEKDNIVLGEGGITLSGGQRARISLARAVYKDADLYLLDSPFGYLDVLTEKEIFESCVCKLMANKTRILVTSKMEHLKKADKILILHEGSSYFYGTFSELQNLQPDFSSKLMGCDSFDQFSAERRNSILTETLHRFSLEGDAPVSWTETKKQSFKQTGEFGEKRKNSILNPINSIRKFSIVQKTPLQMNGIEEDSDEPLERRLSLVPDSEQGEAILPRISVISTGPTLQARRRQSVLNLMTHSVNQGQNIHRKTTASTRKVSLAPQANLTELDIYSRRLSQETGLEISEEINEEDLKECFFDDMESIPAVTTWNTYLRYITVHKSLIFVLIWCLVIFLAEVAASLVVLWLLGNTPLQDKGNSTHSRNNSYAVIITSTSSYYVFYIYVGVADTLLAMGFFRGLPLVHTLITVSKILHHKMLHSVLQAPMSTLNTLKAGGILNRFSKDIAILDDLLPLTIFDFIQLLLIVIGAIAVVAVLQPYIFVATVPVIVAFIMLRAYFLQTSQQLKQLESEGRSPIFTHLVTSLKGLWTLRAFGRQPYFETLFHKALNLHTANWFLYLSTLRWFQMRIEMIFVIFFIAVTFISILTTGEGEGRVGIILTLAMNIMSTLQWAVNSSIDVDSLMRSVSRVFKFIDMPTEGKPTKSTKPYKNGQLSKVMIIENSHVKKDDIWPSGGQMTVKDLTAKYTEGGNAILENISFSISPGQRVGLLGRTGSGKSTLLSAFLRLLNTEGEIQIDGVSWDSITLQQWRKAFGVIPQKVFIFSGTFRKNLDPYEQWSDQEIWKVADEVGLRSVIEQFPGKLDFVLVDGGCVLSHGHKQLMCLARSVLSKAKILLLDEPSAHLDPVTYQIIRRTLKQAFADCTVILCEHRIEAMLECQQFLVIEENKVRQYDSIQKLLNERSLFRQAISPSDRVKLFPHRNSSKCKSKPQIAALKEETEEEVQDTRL

Molecule `CC(C)Oc1nc(C(C)(C)C)ccc1C(=O)NS(=O)(=O)c1cccc(N)n1` [Compound 45, N-[(6-amino-2-pyridyl)sulfonyl]-6-tert-butyl-2-isopropoxy-pyridine-3-carboxamide] has an Emax of 30 to 80% and an EC50 of 3 to 10 µM.

`CCN(CC)c1nc(-c2cc(F)cc(OCC(C)C)c2)ccc1C(=O)NS(=O)(=O)c1ccn[nH]1` [Compound 46, 2-(diethylamino)-6-(3-fluoro-5-isobutoxy-phenyl)-N-(1H-pyrazol-5-ylsulfonyl)pyridine-3-carboxamide] was tested, and the Emax was 30 to 80% and the EC50 was under 3 µM.

In the case of `CCC(CC)Oc1nc(-c2cc(F)cc(OCC(C)C)c2)ccc1C(=O)NS(=O)(=O)c1cccc(N)n1` [Compound 47, N-[(6-amino-2-pyridyl)sulfonyl]-2-(1-ethylpropoxy)-6-(3-fluoro-5-isobutoxy-phenyl)pyridine-3-carboxamide], the Emax is reported as over 80% and the EC50 is reported as under 3 µM.

Work on `CC(C)COc1cc(F)cc(-c2ccc(C(=O)NS(=O)(=O)c3cccc(N)n3)c(OCC(F)(F)F)n2)c1` [Compound 48, N-[(6-amino-2-pyridyl)sulfonyl]-6-(3-fluoro-5-isobutoxy-phenyl)-2-(2,2,2-trifluoroethoxy)pyridine-3-carboxamide] yielded an Emax of 30 to 80% and an EC50 of 3 to 10 µM.

In the case of `C=C(C)COc1nc(-c2cc(F)cc(OCC(C)C)c2)ccc1C(=O)NS(=O)(=O)c1cccc(N)n1` [Compound 49, N-[(6-amino-2-pyridyl)sulfonyl]-6-(3-fluoro-5-isobutoxy-phenyl)-2-(2-methylallyloxy)pyridine-3-carboxamide], the Emax is reported as over 80% and the EC50 is reported as under 3 µM.

Work on `CC(C)COc1cc(F)cc(-c2ccc(C(=O)NS(=O)(=O)c3ccn[nH]3)c(NCCC(C)(C)C)n2)c1` [Compound 50, 2-(3,3-dimethylbutylamino)-6-(3-fluoro-5-isobutoxy-phenyl)-N-(1H-pyrazol-5-ylsulfonyl)pyridine-3-carboxamide] yielded an Emax of 30 to 80% and an EC50 of 3 to 10 µM.

In the case of `COCC(C)(C)Oc1nc(-c2cc(F)cc(OCC(C)C)c2)ccc1C(=O)NS(=O)(=O)c1cccc(N)n1` [Compound 51, N-[(6-amino-2-pyridyl)sulfonyl]-6-(3-fluoro-5-isobutoxy-phenyl)-2-(2-methoxy-1,1-dimethyl-ethoxy)pyridine-3-carboxamide], the Emax is reported as 30 to 80% and the EC50 is reported as under 3 µM.

In the case of `CC(C)COc1cc(F)cc(-c2ccc(C(=O)NS(=O)(=O)c3cccc(N)n3)c(N(C)CC(C)(C)C)n2)c1` [Compound 52, N-[(6-amino-2-pyridyl)sulfonyl]-2-[2,2-dimethylpropyl(methyl)amino]-6-(3-fluoro-5-isobutoxy-phenyl)pyridine-3-carboxamide], the Emax is reported as over 80% and the EC50 is reported as under 3 µM.

With `CCN(CC)c1nc(-c2cc(F)cc(OCC(C)C)c2)ccc1C(=O)NS(=O)(=O)c1cccc(N)n1` [Compound 53, N-[(6-amino-2-pyridyl)sulfonyl]-2-(diethylamino)-6-(3-fluoro-5-isobutoxy-phenyl)pyridine-3-carboxamide] the Emax was over 80% and the EC50 was under 3 µM.

For `CC(C)COc1cc(F)cc(-c2ccc(C(=O)NS(=O)(=O)c3cccc(N)n3)c(NC(C)C(C)C)n2)c1` (centres unmarked) [Compound 54, N-[(6-amino-2-pyridyl)sulfonyl]-2-(1,2-dimethylpropylamino)-6-(3-fluoro-5-isobutoxy-phenyl)pyridine-3-carboxamide], the Emax was 30 to 80% and the EC50 was 3 to 10 µM.

Work on `CC(C)COc1cc(F)cc(-c2ccc(C(=O)NS(=O)(=O)c3cccc(N)n3)c(OCCOC(C)C)n2)c1` [Compound 55, N-[(6-amino-2-pyridyl)sulfonyl]-6-(3-fluoro-5-isobutoxy-phenyl)-2-(2-isopropoxyethoxy)pyridine-3-carboxamide] yielded an Emax of 30 to 80% and an EC50 of under 3 µM.

In the case of `CCCC(C)Oc1nc(-c2cc(F)cc(OCC(C)C)c2)ccc1C(=O)NS(=O)(=O)c1cccc(N)n1` (centres unmarked) [Compound 56, N-[(6-amino-2-pyridyl)sulfonyl]-6-(3-fluoro-5-isobutoxy-phenyl)-2-(1-methylbutoxy)pyridine-3-carboxamide], the Emax is reported as over 80% and the EC50 is reported as under 3 µM.

`CC(C)COc1cc(F)cc(-c2ccc(C(=O)NS(=O)(=O)c3cccc(N)n3)c(OCC(C)(F)F)n2)c1` [Compound 57, N-[(6-amino-2-pyridyl)sulfonyl]-2-(2,2-difluoropropoxy)-6-(3-fluoro-5-isobutoxy-phenyl)pyridine-3-carboxamide] gave an Emax of 30 to 80% and an EC50 of under 3 µM.

Work on `CC(C)COc1cc(F)cc(-c2ccc(C(=O)NS(=O)(=O)c3cccc(N)n3)c(NC(C)(C)C)n2)c1` [Compound 58, N-[(6-amino-2-pyridyl)sulfonyl]-2-(tert-butylamino)-6-(3-fluoro-5-isobutoxy-phenyl)pyridine-3-carboxamide] yielded an Emax of over 80% and an EC50 of under 3 µM.

`CC[C@@H](C)Oc1nc(-c2cc(F)cc(OCC(C)C)c2)ccc1C(=O)NS(=O)(=O)c1cccc(N)n1` [Compound 59, N-[(6-amino-2-pyridyl)sulfonyl]-6-(3-fluoro-5-isobutoxy-phenyl)-2-[(1R)-1-methylpropoxy]pyridine-3-carboxamide] gave an Emax of 30 to 80% and an EC50 of under 3 µM.

For `COCCOc1nc(-c2cc(F)cc(OCC(C)C)c2)ccc1C(=O)NS(=O)(=O)c1cccc(N)n1` [Compound 60, N-[(6-amino-2-pyridyl)sulfonyl]-6-(3-fluoro-5-isobutoxy-phenyl)-2-(2-methoxyethoxy)pyridine-3-carboxamide], the Emax was 30 to 80% and the EC50 was under 3 µM.

`CC(C)COc1cc(F)cc(-c2ccc(C(=O)NS(=O)(=O)c3cccc(N)n3)c(N(C)CC(C)C)n2)c1` [Compound 61, N-[(6-amino-2-pyridyl)sulfonyl]-6-(3-fluoro-5-isobutoxy-phenyl)-2-[isobutyl(methyl)amino]pyridine-3-carboxamide] gave an Emax of over 80% and an EC50 of under 3 µM.

Work on `CCCC(C)C(C)Oc1nc(-c2cc(F)cc(OCC(C)C)c2)ccc1C(=O)NS(=O)(=O)c1cccc(N)n1` (centres unmarked) [Compound 62, N-[(6-amino-2-pyridyl)sulfonyl]-2-(1,2-dimethylpentoxy)-6-(3-fluoro-5-isobutoxy-phenyl)pyridine-3-carboxamide] yielded an Emax of 30 to 80% and an EC50 of under 3 µM.

With `CCCCOc1nc(-c2cc(F)cc(OCC(C)C)c2)ccc1C(=O)NS(=O)(=O)c1cccc(N)n1` [Compound 63, N-[(6-amino-2-pyridyl)sulfonyl]-2-butoxy-6-(3-fluoro-5-isobutoxy-phenyl)pyridine-3-carboxamide] the Emax was over 80% and the EC50 was under 3 µM.

`CCCN(C)c1nc(-c2cc(F)cc(OCC(C)C)c2)ccc1C(=O)NS(=O)(=O)c1cccc(N)n1` [Compound 64, N-[(6-amino-2-pyridyl)sulfonyl]-6-(3-fluoro-5-isobutoxy-phenyl)-2-[methyl(propyl)amino]pyridine-3-carboxamide] was tested, and the Emax was over 80% and the EC50 was under 3 µM.

With `COC[C@@H](C)Oc1nc(-c2cc(F)cc(OCC(C)C)c2)ccc1C(=O)NS(=O)(=O)c1cccc(N)n1` [Compound 65, N-[(6-amino-2-pyridyl)sulfonyl]-6-(3-fluoro-5-isobutoxy-phenyl)-2-[(1R)-2-methoxy-1-methyl-ethoxy]pyridine-3-carboxamide] the Emax was 30 to 80% and the EC50 was under 3 µM.

For `CC(C)COc1cc(F)cc(-c2ccc(C(=O)NS(=O)(=O)c3cccc(N)n3)c(N(C)CC(F)(F)F)n2)c1` [Compound 66, N-[(6-amino-2-pyridyl)sulfonyl]-6-(3-fluoro-5-isobutoxy-phenyl)-2-[methyl(2,2,2-trifluoroethyl)amino]pyridine-3-carboxamide], the Emax was over 80% and the EC50 was under 3 µM.
